The record followed here is patent US20240374581A1, “SALT TYPES OF TRICYCLIC TETRAHYDRO ISOQUINOLINE DERIVATIVE” (JIANGSU HENGRUI PHARMACEUTICALS CO., LTD., priority 2021, published 2024).

In general, IC50 refers to the concentration needed to halve the response being measured.

Series [1] deals with T1, CYP3A4 (Homo sapiens (Human), UniProt P08684). The series can be described thus: Inhibition of site of metabolism of midazolam in human liver microsome CYP3A4. It counts as in vitro ADME. Particulars: 30 min. Here is the method: • 1. Phosphate buffer (20×PBS, purchased from Sangon); • 2. NADPH (ACROS, A2646-71-1); • 3. Human liver microsome (Corning Gentest, Cat No. 452161, Lot No. 9050002, Donor, 36); • 4. ABI QTrap 4000 LC-MS System (AB Sciex); • 5. ZORBAX Extend-C18, 3×50 mm, 3.5 m (Agilent, USA); • 6. CYP probe substrate (midazolam, TRC, M343000/3 μM) and positive control inhibitor (ketoconazole, SIGMA, Cat No. K1003-100MG).
T1 sequence (P08684 whole entry): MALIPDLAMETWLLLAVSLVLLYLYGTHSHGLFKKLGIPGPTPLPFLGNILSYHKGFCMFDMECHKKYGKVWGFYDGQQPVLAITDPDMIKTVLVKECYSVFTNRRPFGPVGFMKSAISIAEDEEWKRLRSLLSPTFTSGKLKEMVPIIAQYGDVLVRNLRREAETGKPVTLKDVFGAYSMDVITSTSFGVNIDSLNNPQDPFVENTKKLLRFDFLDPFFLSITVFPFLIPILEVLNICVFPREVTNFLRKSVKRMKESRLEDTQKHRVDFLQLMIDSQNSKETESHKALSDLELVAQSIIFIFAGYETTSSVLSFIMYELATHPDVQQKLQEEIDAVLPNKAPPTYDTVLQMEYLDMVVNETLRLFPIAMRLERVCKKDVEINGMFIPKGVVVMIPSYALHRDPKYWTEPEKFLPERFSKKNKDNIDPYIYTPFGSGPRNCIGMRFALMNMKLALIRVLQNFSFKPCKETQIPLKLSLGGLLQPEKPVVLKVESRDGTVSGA
A 100 mM PBS buffer was prepared. A 0.25 mg/mL microsome solution, a 7.5 mM MgCl2 and a 5 mM NADPH solution were prepared using the buffer. A 30 mM stock solution was diluted with DMSO to obtain 30 mM, 10 mM, 3 mM, 1 mM, 0.3 mM, 0.03 mM, 0.003 mM and 0 mM serial solutions I, which were further diluted 200-fold with phosphate buffer (PBS) to obtain serial test solutions II (150, 50, 15, 5, 1.5, 0.15, 0.015 and 0 μM). A midazolam working solution was diluted with PBS to 15 μM. 40 μL of a 0.25 mg/mL microsome solution prepared in 7.5 mM MgCl2 and 20 μL of each of the […] midazolam working solution and the compound working solutions (150, 50, 15, 5, 1.5, 0.15, 0.015 and 0 μM) were measured out and well mixed. Ketoconazole at the same concentration was used in place of the compound as a positive control group. […]
The IC50 value of the drug for the site of metabolism of midazolam in CYP3A4 was calculated by Graphpad Prism and is shown in Table 5.
(Liver microsomes are a subcellular fraction often used to study metabolism.)

In series [2] the target is T1, CYP3A4. As to the kind of experiment: Time-dependent inhibition of site of metabolism of testosterone in human liver microsome CYP3A4. Particulars: for IC50: testosterone site. It is filed as in vitro ADME. As for the experimental part: • 1. Phosphate buffer (20×PBS, purchased from Sangon); • 2. NADPH (ACROS, A2646-71-1); • 3. Human liver microsome (Corning Gentest, Cat No. 452161, Lot No. 905002, Donor36); • 4. ABI QTrap 4000 LC-MS System (AB Sciex); • 5. ZORBAX Extend-C18, 3×50 mm, 3.5 m (Agilent, USA); • 6. CYP probe substrate (testosterone, Vocko, CAS No. [58-22-0]/75 μM) and positive control inhibitor (verapamil, Adamas Reagent Co., Ltd, Cat No. 25904A).
A 100 mM PBS buffer was prepared. A 0.25 mg/mL microsome solution, a 7.5 mM MgCl2 and a 5 mM NADPH solution were prepared using the buffer. A 30 mM stock solution was diluted with DMSO to obtain 30 mM, 10 mM, 3 mM, 1 mM, 0.3 mM, 0.1 mM, 0.03 mM and 0 mM serial solutions I, which were further diluted 200-fold with phosphate buffer (PBS) to obtain serial test solutions II (150, 50, 15, 5, 1.5, 0.5, 0.15 and 0 μM). A midazolam working solution was diluted with PBS to 15 μM.
The serial test solutions prepared above were well mixed by shaking and aliquoted in 20 μL portions into corresponding reaction plates (+NADPH, TO and -NADPH groups were set). Three parallel tests were set. 40 μL of the liver microsome working solution was added to each 96-well plate. 20 μL of a corresponding substrate solution was added to the TO plate. 20 μL of NADPH was added to the TO plate and +NADPH group. A timer was started, and the plates were incubated in a water bath at 37° C. After 30 min of incubation, the TO plate was taken out, and the reaction was terminated with 250 μL of an internal standard-containing ACN solution. The +NADPH group was supplemented with 20 μL of the corresponding substrate solution, and the −NADPH group was supplemented with 20 μL of the corresponding substrate solution and 20 μL of NADPH. A timer was started, and the plates were incubated in a water bath at 37° C. After 30 min of incubation, the plates were taken out, and the reactions were terminated with 250 μL of an internal standard-containing ACN solution. […]
The IC50 value of the drug for the site of metabolism of testosterone in CYP3A4 was calculated by Graphpad Prism and is shown in Table 8.

Series [3] in a line: Long-term/accelerated stability. It is filed as physicochemical. Particulars: for Crystal form: up to 3 months.

In turn, `[2H]C1([2H])Oc2cc3c(cc2O1)[C@@H](c1ccc(NC2CN(CCCF)C2)cn1)N(CC(F)(F)CO)[C@H](C)C3` [Compound 1, 2,2-Difluoro-3-((5S,7R)-5-(5-((1-(3-fluoropropyl)azetidin-3-yl)amino)pyridin-2-yl)-7-methyl-7,8-dihydro-[1,3]dioxolo[4,5-g]isoquinolin-6(5H)-yl-2,2-d2)propan-1-ol] registered an IC50 at CYP3A4 [1] of 15.4 µM. The “IC50 Shift” value at CYP3A4 [2] (microsomes) is recorded as “No TDI”. Further, the IC50 at CYP3A4 [2] (pre-incubation with NADPH 30 min) is above 30 µM. The compound also displayed an IC50 against CYP3A4 [2] (pre-incubation without NADPH) above 30 µM. In series [3] (25° C./60% RH), the “Purity (%) 1 month” value is listed as 97.1%, the “Purity (%) 2 months” value is 96.7%, the “Purity (%) 3 months” value is listed as 96.7% and the “Purity (%) 7 days” value is on record as 97.1%. Besides, in series [3] (25° C./60% RH), the “Purity (%) 14 days” value worked out at 97.0%, the “Purity (%) Initial” value is 97.1% and the Crystal form entry was “Unchanged”. For the same compound, in series [3] (40° C./75% RH), the “Purity (%) 1 month” value came to 96.5%, the “Purity (%) 2 months” value is on record as 95.5%, the “Purity (%) 3 months” value came to 94.9% and the “Purity (%) 7 days” value came out at 96.8%. Also, in series [3] (40° C./75% RH), the “Purity (%) 14 days” value worked out at 96.6%, the “Purity (%) Initial” value was 97.1% and the Crystal form result is on record as “Unchanged”.
